# Measured values taken from patent US11596615B2, “Compositions and methods for treatment of insulin resistance” (Temple University—Of The Commonwealth System Of Higher …, priority 2016, dated 2023).
# Where a name gives a salt, the structure may show the parent alone.
# Tests used:
# [1] = system: mice fed high fat diet (HFD); test: Fasting glucose and glucose tolerance test in HFD mice (Example 11); assay type: in vivo, C57BL/6J mice; conditions: two weeks
# Protocol: Thirty-two C57BL/6J mice 8-weeks old were selected and randomly separated. The mice (n=8) were fed ad libitum for two weeks with either CHOW diet or high fat diet (HFD, 60% of fat content). Each group was divided in half 8 animals received regular water and the other 8 received (S)-2-amino-6-((3-aminopropyl)amino)hexanoic acid dihydrochloride dissolved in water so as to administer about 10 mg/kg of the drug body weight per mouse, per day. As an additional experimental control (n=8), a group of mice receiving HFD also received pioglitazone (10 mg/kg). Poglitazone is a well-known anti-diabetic agent. It has the ability to increase glucose uptake into the cells. […] At the end of the two weeks, animals were fasted for 5 hours, weighed, and their tails were clipped to measure fasting blood glucose levels. Immediately after, glucose was administered intraperitoneally (1 mg/g of body weight). Glucose levels were measured at 20, 40, 80 and 140 minutes after glucose administration in a glucose time test (GTT). Animals were euthanized under anesthesia (isoflurane). Blood, liver, fat and muscle tissues were collected and flash frozen for the studies. […]
# [2] = system: 3T3-L1 adipocytes; test: Restoring glucose uptake in insulin-stimulated 3T3-L1 cells exposed to 4-HNE and H2O2 (FIG. 13); assay type: cell-based, mouse; conditions: 10 μM pretreatment 12 hours, then 4HNE and H2O2 4 hours
# Protocol: Insulin-stimulated 3T3-L1 adipocytes were pretreated with the drug (S)-2-amino-6-((3-aminopropyl)amino)hexanoic acid dihydrochloride (10 μM) for 12 hours followed by exposure to 4HNE and H2O2 for an additional 4 hours. The amounts of glucose taken up by the 3T3-L1 adipocytes were measured by the MRM methods described above. The results in FIG. 13 show the effect of the drug in restoring glucose uptake in insulin-stimulated 3T3-L1 cells exposed to 4-HNE and H2O2: Control cells, no insulin (C− No Ins); control cells, with insulin (C+ Ins); 4HNE+H2O2-treated cells (4HNE/H2O2) and cells treated with drug+4HNE+H2O2 (“APL”).
# Insulin-stimulated 3T3-L1 adipocytes were pretreated with the drug (S)-2-amino-5-((6-aminohexyl)amino)pentanoic acid dihydrochloride (10 μM) for 12 hours followed by exposure to 4HNE and H2O2 for an additional 4 hours. The amounts of glucose taken up by the 3T3-L1 adipocytes were measured by the MRM methods described above. FIG. 13 includes the results: cells treated with (S)-2-amino-5-((6-aminohexyl)amino)pentanoic acid trihydrochloride (MC-180351).
# Insulin-stimulated 3T3-L1 adipocytes were pretreated with the drug (S)-2-amino-5-(([…])amino)pentanoic acid dihydrochloride (10 μM) for 12 hours followed by exposure to 4HNE and H2O2 for an additional 4 hours. The amounts of glucose taken up by the 3T3-L1 adipocytes were measured by the MRM methods described above. FIG. 13 includes the results: cells treated with (S)-2-amino-5-((5-aminopentyl)amino)pentanoic acid trihydrochloride (MC-180352).
# [3] = system: GLUT4; test: GLUT4 carbonylation in adipose tissue of HFD mice by MRM; assay type: in vivo, C57BL/6J mice; conditions: about 10 mg/kg per day in water, two weeks, n=8, P<0.02, FIG. 8A
# Excerpt: MRM-MS is a quantitative mass spectrometry-based target technology that generates unique fragment ions associated with their corresponding precursor ions. These ions can be detected and quantified in complex matrix samples. The quantitation of peptides is obtained measuring the intensity of the fragment ions. To detect carbonylated GLUT4, specific peptides were selected. The parent ion for the carbonylated GLUT4 sequence LTGWADVSGVLAELKDEK-4HNE (SEQ ID NO:2) with triple charge mass is 696.381 m/z. After fragmentation of the parent ion, relative daughter ions: 1101.94, 788.4758, 917.5138, 988.5555, 722.4186, and 481.9482 m/z were identified and used for the quantification of the carbonylated Glut 4 peptide. […] This internal standard peptide allows a relative quantification because it is used for normalization of the intensity of each GLUT4 peptide within the same sample.
# MRM analyses were performed with a DIONEX UltiMate™ 3000 SRLCnano HPLC system (Thermo Scientific) coupled to a TSQ QUANTUM™ ULTRA (Thermo Scientific) triple quadrupole. PINPOINT™ software was used for method development and the optimization of the mass spectrometer parameters, as well as for peptide quantification. […]
# Thirty-two C57BL/6J mice 8-weeks old were selected and randomly separated. […] Glucose levels were measured at 20, 40, 80 and 140 minutes after glucose administration in a glucose time test (GTT). […]
compound,measurement,setting,value
"NCCCNCCCC[C@H](N)C(=O)O [APL, (S)-2-amino-6-((3-aminopropyl)amino)hexanoic acid dihydrochloride]",glucose tolerance test,"[1]; 10 mg/kg, glucose 1 mg/g i.p., FIG. 8C",drastically improved
same,fasting glucose levels,"[1]; about 10 mg/kg per day, 5 hours fasted, FIG. 8B",reduced fasting glucose levels
same,GLUT4 carbonylations,[2],reduce GLUT4 carbonylations
same,glucose uptake impairment induced by 4-HNE and H2O2,[2]; FIG. 13,prevent glucose uptake impairment induced by 4-HNE and H2O2
same,reduction of GLUT4 carbonylations in adipose tissue,[3],about 50%
